Results taken from BindingDB's records for doi:10.1021/jm100306a (University of Pennsylvania, 2010).

Target: T1, Arginase-1 (Homo sapiens, UniProt P05089)
T1 sequence (P05089 whole entry): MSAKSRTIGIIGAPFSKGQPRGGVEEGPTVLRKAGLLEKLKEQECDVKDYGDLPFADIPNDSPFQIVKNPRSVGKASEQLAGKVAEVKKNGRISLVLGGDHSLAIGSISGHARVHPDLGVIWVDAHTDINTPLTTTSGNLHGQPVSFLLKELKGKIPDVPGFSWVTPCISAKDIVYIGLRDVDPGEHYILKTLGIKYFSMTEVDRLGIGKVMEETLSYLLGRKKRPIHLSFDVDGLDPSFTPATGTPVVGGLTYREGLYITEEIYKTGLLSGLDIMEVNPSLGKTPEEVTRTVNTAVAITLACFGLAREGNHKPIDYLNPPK
Experiment: Inhibition of human recombinant full length arginase 1 expressed in Escherichia coli BL21(DE3) by fixed point assay

- Ki: > 800 mM
SMILES: Nc1ncc(CCCC(N)C(=O)O)[nH]1 (stereo unspecified) [2-amino-5-(2-aminoimidazol-4-yl)pentanoic acid]
